Data as given in ChEMBL document CHEMBL4219117, “Chemical synthesis of an indomethacin ester prodrug and its metabolic activation by human carboxylesterase 1” (Bioorg Med Chem Lett, 2018).

T1: Liver carboxylesterase 1 (Homo sapiens, UniProt P23141)
T1 sequence (P23141 whole entry): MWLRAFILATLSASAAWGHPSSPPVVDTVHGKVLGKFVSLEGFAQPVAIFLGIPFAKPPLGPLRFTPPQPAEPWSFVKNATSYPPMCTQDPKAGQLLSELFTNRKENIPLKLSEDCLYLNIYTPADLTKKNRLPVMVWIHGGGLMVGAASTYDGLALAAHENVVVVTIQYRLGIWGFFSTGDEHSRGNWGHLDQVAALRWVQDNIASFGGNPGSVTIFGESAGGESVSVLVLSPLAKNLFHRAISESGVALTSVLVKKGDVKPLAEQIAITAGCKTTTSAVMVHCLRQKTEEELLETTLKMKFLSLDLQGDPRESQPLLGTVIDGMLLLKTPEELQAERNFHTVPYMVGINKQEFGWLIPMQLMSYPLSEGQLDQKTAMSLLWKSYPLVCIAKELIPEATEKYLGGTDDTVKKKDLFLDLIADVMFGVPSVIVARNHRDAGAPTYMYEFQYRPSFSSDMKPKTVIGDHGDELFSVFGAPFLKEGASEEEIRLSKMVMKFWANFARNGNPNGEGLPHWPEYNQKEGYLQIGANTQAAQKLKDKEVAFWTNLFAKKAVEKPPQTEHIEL


What was measured:
Liver carboxylesterase 1 [1] = biological target: T1, Liver carboxylesterase 1; assay: Prodrug activation in human intestine microsomes assessed as carboxylesterase 1-mediated indomethacin formation at 0.25 mM after 30 to 1440 mins by HPLC analysis; conditions: 250 µM
Liver carboxylesterase 1 [2] = biological target: T1, Liver carboxylesterase 1; assay: Prodrug activation in human liver microsomes assessed as carboxylesterase 1-mediated indomethacin formation at 0.25 mM after 30 to 1440 mins by HPLC analysis; conditions: 250 µM
Liver carboxylesterase 1 [3] = biological target: T1, Liver carboxylesterase 1; assay: Prodrug activation assessed as human carboxylesterase 1b-mediated indomethacin formation by measuring intrinsic clearance per mg protein at 0.003125 to 0.10 mM after 30 to 180 mins by HPLC based Michaelis-Menten plot analysis; conditions: isolated protein, 100 µM
[4] = substrate: CC[C@@H](C)OC(=O)Cc1c(C)n(C(=O)c2ccc(Cl)cc2)c2ccc(OC)cc12; assay: (§1) Prodrug activation assessed as human carboxylesterase 1b-mediated indomethacin formation at 0.003125 to 0.10 mM after 30 to 180 mins by HPLC based Michaelis-Menten plot analysis
[5] = substrate: CC[C@H](OC(=O)Cc1c(C)n(C(=O)c2ccc(Cl)cc2)c2ccc(OC)cc12)c1ccccc1; assay: as §1
[6] = substrate: COc1ccc2c(c1)c(CC(=O)OCC(C)(C)C)c(C)n2C(=O)c1ccc(Cl)cc1; assay: as §1
[7] = substrate: CC[C@H](C)OC(=O)Cc1c(C)n(C(=O)c2ccc(Cl)cc2)c2ccc(OC)cc12; assay: as §1
[8] = substrate: COc1ccc2c(c1)c(CC(=O)OCC(C)C)c(C)n2C(=O)c1ccc(Cl)cc1; assay: as §1
[9] = substrate: CC[C@@H](OC(=O)Cc1c(C)n(C(=O)c2ccc(Cl)cc2)c2ccc(OC)cc12)c1ccccc1; assay: as §1
[10] = substrate: CCCCSC(=O)Cc1c(C)n(C(=O)c2ccc(Cl)cc2)c2ccc(OC)cc12; assay: as §1
[11] = substrate: CCCCOC(=O)Cc1c(C)n(C(=O)c2ccc(Cl)cc2)c2ccc(OC)cc12; assay: as §1

Molecule | Drug metabolism (Liver carboxylesterase 1 [1]) | Drug metabolism (Liver carboxylesterase 1 [2]) | clearance (Liver carboxylesterase 1 [3]) [µL/min/mg] | also measured
CCCCSC(=O)Cc1c(C)n(C(=O)c2ccc(Cl)cc2)c2ccc(OC)cc12 | Metabolite_Detected | Metabolite_Detected | 380 | 
CC[C@H](C)OC(=O)Cc1c(C)n(C(=O)c2ccc(Cl)cc2)c2ccc(OC)cc12 | Metabolite_Notdetected | Metabolite_Notdetected | 2.1 | 
COc1ccc2c(c1)c(CC(=O)OCC(C)(C)C)c(C)n2C(=O)c1ccc(Cl)cc1 | Metabolite_Notdetected | Metabolite_Detected | 69 | 
COc1ccc2c(c1)c(CC(=O)OC(C)(C)C)c(C)n2C(=O)c1ccc(Cl)cc1 | Metabolite_Notdetected | Metabolite_Notdetected |  | 
COc1ccc2c(c1)c(CC(=O)OCC(C)C)c(C)n2C(=O)c1ccc(Cl)cc1 | Metabolite_Detected | Metabolite_Detected | 89 | 
CCCCOC(=O)Cc1c(C)n(C(=O)c2ccc(Cl)cc2)c2ccc(OC)cc12 | Metabolite_Detected | Metabolite_Detected | 340 | 
Liver carboxylesterase 1 (Homo sapiens) (protein) MWLRAFILATLSASAAWGHPSSPPVVDTVHGKVLGKFVSLEGFAQPVAIFLGIPFAKPPLGPLRFTPPQPAEPWSFVKNATSYPPMCTQDPKAGQLLSELFTNRKENIPLKLSEDCLYLNIYTPADLTKKNRLPVMVWIHGGGLMVGAASTYDGLALAAHENVVVVTIQYRLGIWGFFSTGDEHSRGNWGHLDQVAALRWVQDNIASFGGNPGSVTIFGESAGGESVSVLVLSPLAKNLFHRAISESGVALTSVLVKKGDVKPLAEQIAITAGCKTTTSAVMVHCLRQKTEEELLETTLKMKFLSLDLQGDPRESQPLLGTVIDGMLLLKTPEELQAERNFHTVPYMVGINKQEFGWLIPMQLMSYPLSEGQLDQKTAMSLLWKSYPLVCIAKELIPEATEKYLGGTDDTVKKKDLFLDLIADVMFGVPSVIVARNHRDAGAPTYMYEFQYRPSFSSDMKPKTVIGDHGDELFSVFGAPFLKEGASEEEIRLSKMVMKFWANFARNGNPNGEGLPHWPEYNQKEGYLQIGANTQAAQKLKDKEVAFWTNLFAKKAVEKPPQTEHIEL |  |  |  | Km [4]: 10.1 µM; Vmax [4]: 4.9e-05 µmol/min; Km [5]: 6.5 µM; Vmax [5]: 2e-06 µmol/min; Km [6]: 4.6 µM; Vmax [6]: 0.000322 µmol/min; Km [7]: 48.5 µM; Vmax [7]: 0.000103 µmol/min; Km [8]: 13.7 µM; Vmax [8]: 0.00122 µmol/min; Km [9]: 2.9 µM; Vmax [9]: 2.1e-05 µmol/min; Km [10]: 2.1 µM; Vmax [10]: 0.0008 µmol/min; Km [11]: 4.4 µM; Vmax [11]: 0.00151 µmol/min

Now from value to molecule, other results behind:

Drug metabolism (Liver carboxylesterase 1 [1]) | Drug metabolism (Liver carboxylesterase 1 [2]) | clearance (Liver carboxylesterase 1 [3]) [µL/min/mg] | Molecule | also measured
Metabolite_Notdetected | Metabolite_Notdetected | 0.3 | CC[C@H](OC(=O)Cc1c(C)n(C(=O)c2ccc(Cl)cc2)c2ccc(OC)cc12)c1ccccc1 | 
Metabolite_Notdetected | Metabolite_Notdetected | 7 | CC[C@@H](OC(=O)Cc1c(C)n(C(=O)c2ccc(Cl)cc2)c2ccc(OC)cc12)c1ccccc1 | 
Metabolite_Notdetected | Metabolite_Notdetected | 4.8 | CC[C@@H](C)OC(=O)Cc1c(C)n(C(=O)c2ccc(Cl)cc2)c2ccc(OC)cc12 | 
